In ChEMBL document CHEMBL5696442, “Discovery of type II inhibitors of TGFβ-activated kinase 1 (TAK1) and mitogen-activated protein kinase kinase kinase kinase 2 (MAP4K2)” (J Med Chem, 2015):
The source made the active and inactive calls. No cut-off for these calls is given here.

Columns and labels:
[1] = Inhibition of p70S6K Lys2 labeling site in human Huh-7 cell lysate at 1 uM by KiNativ Profiling analysis relative to control; conditions: condition cancer
[2] = test system: Tyrosine-protein kinase ABL1 (Homo sapiens), P00519 [F317I]; assay: Inhibition of ABL1 F317I mutant (unknown origin) at 10 uM by Ambit Kinomescan binding assay relative to control
Sequence of Tyrosine-protein kinase ABL1 (Homo sapiens), P00519 [F317I] (P00519 whole entry F317I): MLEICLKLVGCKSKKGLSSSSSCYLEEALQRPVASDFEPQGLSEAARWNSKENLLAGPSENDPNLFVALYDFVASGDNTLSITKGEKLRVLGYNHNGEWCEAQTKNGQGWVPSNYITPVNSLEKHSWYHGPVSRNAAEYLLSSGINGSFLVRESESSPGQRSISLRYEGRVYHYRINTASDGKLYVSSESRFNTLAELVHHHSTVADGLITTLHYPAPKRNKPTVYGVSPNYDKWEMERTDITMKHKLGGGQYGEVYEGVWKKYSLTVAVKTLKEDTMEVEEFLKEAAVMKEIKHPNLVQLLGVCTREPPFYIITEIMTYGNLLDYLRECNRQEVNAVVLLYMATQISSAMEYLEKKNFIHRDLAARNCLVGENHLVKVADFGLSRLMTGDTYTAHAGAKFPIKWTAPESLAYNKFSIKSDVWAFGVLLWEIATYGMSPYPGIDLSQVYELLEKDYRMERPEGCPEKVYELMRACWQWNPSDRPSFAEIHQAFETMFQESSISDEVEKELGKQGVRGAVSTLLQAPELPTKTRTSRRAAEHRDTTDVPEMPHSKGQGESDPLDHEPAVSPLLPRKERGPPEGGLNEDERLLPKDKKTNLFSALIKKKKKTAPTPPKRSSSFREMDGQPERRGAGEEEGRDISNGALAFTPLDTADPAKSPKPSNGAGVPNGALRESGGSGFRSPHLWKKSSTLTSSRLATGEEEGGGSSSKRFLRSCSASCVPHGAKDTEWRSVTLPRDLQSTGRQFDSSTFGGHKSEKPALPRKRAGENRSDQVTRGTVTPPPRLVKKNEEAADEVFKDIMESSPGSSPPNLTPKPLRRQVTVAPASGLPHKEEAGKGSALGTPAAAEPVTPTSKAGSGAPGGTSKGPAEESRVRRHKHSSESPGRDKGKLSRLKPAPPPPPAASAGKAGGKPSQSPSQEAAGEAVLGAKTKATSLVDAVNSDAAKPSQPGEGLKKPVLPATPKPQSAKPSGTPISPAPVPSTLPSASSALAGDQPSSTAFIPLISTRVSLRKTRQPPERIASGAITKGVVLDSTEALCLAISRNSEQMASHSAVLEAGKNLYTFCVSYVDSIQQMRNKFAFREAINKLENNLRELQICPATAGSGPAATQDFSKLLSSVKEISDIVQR

[3] = test system: Tyrosine-protein kinase ABL1 (Homo sapiens), P00519 [F317L]; assay: Inhibition of ABL1 F317L mutant (unknown origin) at 10 uM by Ambit Kinomescan binding assay relative to control
Sequence of Tyrosine-protein kinase ABL1 (Homo sapiens), P00519 [F317L] (P00519 whole entry F317L): as the sequence (P00519 whole entry F317I) above, with I317L counted along it

[4] = molecular target: Mitogen-activated protein kinase kinase kinase 4 (Homo sapiens) (UniProt Q9Y6R4); assay: Inhibition of MAP3K4 (unknown origin) at 10 uM by Ambit Kinomescan binding assay
[5] = molecular target: Misshapen-like kinase 1 (Homo sapiens) (UniProt Q8N4C8); assay: Inhibition of MINK (unknown origin) at 10 uM by Ambit Kinomescan binding assay
[6] = molecular target: MAP kinase-interacting serine/threonine-protein kinase 1 (Homo sapiens) (UniProt Q9BUB5); assay: Inhibition of MKNK1 (unknown origin) at 10 uM by Ambit Kinomescan binding assay
[7] = molecular target: T1, Mitogen-activated protein kinase kinase kinase kinase 2 (Homo sapiens) (UniProt Q12851); assay: Inhibition of MAP4K2 (GCK) Lys1 labeling site in human A-375 cells at 0.05 uM by KiNativ Profiling analysis relative to control; format: cell-based
T1 sequence (whole entry): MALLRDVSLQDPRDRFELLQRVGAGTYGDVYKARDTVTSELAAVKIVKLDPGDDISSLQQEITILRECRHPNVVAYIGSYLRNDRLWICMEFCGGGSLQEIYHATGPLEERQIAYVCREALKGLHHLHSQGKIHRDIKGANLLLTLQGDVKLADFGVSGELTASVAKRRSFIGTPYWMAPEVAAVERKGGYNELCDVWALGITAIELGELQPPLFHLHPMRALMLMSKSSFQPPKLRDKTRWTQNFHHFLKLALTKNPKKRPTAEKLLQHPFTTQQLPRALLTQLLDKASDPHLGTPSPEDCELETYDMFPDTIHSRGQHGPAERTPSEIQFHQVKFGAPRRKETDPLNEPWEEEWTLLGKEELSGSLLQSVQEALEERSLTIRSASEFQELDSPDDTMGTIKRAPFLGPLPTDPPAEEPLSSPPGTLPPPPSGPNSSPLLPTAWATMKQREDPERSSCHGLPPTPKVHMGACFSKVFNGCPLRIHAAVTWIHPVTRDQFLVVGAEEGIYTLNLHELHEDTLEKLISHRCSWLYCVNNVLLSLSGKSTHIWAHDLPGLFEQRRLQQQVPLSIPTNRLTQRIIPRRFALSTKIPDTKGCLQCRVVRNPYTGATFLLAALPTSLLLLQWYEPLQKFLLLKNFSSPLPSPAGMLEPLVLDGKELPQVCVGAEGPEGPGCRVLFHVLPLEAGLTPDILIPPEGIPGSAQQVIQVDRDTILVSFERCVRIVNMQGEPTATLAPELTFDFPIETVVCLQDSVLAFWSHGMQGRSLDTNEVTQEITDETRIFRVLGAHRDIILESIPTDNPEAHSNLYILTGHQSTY

[8] = molecular target: Ribosomal protein S6 kinase alpha-3 (Homo sapiens) (UniProt P51812); assay: Inhibition of RSK2 Domain 2 K2 labeling site harbouring DLKPSNILYVDESGNPESIR in human Huh-7 cells at 10 uM by KiNativ Profiling analysis relative to control; format: cell-based
[9] = molecular target: Serine/threonine-protein kinase N2 (Homo sapiens) (UniProt Q16513); assay: Inhibition of PKN2 K2 labeling site in human Huh-7 cells at 1 uM by KiNativ Profiling analysis relative to control; format: cell-based
Sequence of Serine/threonine-protein kinase N2 (Homo sapiens) (Q16513 whole entry, looked up): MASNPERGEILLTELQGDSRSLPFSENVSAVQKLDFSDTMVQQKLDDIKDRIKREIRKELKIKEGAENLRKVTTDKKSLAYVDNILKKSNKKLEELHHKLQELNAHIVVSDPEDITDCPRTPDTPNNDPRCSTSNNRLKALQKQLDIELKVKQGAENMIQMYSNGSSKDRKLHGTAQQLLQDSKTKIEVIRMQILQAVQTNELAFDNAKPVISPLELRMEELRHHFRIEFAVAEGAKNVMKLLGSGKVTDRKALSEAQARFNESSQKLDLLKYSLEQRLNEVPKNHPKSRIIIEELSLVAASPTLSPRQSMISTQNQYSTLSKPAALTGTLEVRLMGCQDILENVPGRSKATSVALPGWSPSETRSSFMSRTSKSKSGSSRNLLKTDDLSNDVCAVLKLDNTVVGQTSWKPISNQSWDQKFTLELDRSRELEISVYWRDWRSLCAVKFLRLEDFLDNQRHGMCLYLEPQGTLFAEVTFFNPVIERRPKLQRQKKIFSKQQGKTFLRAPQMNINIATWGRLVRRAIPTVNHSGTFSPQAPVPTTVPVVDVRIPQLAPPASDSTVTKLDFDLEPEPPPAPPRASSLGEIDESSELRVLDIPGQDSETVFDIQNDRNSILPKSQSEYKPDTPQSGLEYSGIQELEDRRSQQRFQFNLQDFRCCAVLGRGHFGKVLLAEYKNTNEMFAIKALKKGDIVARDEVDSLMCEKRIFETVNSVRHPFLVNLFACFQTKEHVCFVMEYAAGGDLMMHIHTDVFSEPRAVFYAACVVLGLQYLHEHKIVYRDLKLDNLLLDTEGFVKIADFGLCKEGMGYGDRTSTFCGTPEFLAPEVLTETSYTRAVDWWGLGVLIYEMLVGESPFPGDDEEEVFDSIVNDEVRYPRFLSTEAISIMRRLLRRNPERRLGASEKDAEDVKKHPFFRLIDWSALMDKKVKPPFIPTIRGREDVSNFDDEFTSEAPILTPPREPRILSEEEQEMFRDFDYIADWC

[10] = molecular target: Serine/threonine-protein kinase PAK 5 (Homo sapiens) (UniProt Q9P286); assay: Inhibition of PAK7 (unknown origin) at 1 uM by Ambit Kinomescan binding assay relative to control
Sequence of Serine/threonine-protein kinase PAK 5 (Homo sapiens) (Q9P286 whole entry, looked up): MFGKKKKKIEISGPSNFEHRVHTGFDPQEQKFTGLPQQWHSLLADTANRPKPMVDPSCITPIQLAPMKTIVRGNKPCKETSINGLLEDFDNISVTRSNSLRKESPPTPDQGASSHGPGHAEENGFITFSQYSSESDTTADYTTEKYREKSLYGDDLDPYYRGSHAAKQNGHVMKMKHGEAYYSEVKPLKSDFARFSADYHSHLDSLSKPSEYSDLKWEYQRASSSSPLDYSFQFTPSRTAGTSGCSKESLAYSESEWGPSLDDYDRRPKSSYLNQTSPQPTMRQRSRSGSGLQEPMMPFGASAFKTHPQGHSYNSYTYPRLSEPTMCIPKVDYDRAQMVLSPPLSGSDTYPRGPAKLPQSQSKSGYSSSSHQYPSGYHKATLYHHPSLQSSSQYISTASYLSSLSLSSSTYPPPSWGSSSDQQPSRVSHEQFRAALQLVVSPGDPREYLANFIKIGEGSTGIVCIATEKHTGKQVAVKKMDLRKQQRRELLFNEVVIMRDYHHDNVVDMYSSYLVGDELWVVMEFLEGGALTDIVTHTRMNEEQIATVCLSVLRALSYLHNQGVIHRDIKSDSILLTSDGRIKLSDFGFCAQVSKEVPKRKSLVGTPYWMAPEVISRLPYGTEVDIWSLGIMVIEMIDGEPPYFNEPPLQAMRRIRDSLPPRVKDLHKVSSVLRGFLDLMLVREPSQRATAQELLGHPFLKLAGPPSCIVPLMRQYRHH

[11] = molecular target: Serine/threonine-protein kinase pim-2 (Homo sapiens) (UniProt Q9P1W9); assay: Inhibition of PIM2 (unknown origin) at 1 uM by Ambit Kinomescan binding assay relative to control; values are per cent of control
Sequence of Serine/threonine-protein kinase pim-2 (Homo sapiens) (Q9P1W9 whole entry, looked up): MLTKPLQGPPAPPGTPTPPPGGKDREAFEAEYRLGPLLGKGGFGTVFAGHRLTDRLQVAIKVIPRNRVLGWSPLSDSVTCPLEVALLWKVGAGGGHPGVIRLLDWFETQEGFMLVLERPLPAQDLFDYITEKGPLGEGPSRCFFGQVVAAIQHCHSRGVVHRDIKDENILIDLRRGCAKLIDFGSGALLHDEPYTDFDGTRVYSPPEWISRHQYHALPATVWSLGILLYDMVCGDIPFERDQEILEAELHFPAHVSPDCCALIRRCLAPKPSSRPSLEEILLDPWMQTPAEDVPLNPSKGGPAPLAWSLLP

[12] = molecular target: T2, Mitogen-activated protein kinase kinase kinase 7 (Homo sapiens) (UniProt O43318); assay: Inhibition of TAK1 (unknown origin) at 1 uM by Ambit Kinomescan binding assay relative to control; values are per cent of control
T2 sequence (whole entry): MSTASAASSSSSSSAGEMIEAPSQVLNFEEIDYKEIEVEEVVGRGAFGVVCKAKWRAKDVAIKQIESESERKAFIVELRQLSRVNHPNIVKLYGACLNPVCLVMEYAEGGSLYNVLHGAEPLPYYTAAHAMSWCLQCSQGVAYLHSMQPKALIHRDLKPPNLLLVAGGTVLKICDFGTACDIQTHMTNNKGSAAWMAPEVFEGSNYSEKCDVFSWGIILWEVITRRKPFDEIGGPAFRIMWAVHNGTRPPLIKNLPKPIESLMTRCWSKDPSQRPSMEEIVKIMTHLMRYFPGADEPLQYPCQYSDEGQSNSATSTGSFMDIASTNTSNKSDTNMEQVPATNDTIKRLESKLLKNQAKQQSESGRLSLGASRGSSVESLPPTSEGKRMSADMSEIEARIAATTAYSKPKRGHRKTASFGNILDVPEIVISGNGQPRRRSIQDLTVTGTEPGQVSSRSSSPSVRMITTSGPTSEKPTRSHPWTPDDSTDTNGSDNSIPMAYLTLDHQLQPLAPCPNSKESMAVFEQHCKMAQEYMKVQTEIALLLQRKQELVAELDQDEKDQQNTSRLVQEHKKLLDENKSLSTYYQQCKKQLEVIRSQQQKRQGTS

[13] = molecular target: Fibroblast growth factor receptor 1 (Homo sapiens) (UniProt P11362); assay: Inhibition of FGFR1 (unknown origin) at 1 uM by Ambit Kinomescan binding assay relative to control; values are per cent of control
Sequence of Fibroblast growth factor receptor 1 (Homo sapiens) (P11362 22-822 limits assumed): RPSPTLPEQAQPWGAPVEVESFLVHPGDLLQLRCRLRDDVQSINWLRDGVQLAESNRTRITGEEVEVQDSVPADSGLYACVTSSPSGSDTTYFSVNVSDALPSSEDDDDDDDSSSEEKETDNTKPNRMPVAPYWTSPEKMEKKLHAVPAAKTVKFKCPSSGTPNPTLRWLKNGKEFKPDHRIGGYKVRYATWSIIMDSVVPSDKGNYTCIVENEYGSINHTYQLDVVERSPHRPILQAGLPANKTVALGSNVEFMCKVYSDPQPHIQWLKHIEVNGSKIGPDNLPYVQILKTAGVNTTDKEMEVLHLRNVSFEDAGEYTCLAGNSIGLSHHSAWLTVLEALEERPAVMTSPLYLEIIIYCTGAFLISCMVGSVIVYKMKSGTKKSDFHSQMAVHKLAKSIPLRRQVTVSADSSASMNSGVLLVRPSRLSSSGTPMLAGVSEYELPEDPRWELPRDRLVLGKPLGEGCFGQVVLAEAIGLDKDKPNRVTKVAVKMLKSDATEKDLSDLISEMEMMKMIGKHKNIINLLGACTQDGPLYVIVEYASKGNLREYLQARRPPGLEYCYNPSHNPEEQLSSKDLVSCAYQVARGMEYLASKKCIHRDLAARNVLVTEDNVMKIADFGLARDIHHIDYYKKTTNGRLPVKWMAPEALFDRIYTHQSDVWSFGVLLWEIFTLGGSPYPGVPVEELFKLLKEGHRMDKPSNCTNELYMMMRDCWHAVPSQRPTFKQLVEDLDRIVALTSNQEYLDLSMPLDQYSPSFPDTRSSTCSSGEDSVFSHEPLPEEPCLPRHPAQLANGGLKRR

[14] = molecular target: Protein kinase C eta type (Homo sapiens) (UniProt P24723); assay: Inhibition of PRKCH (unknown origin) at 1 uM by Ambit Kinomescan binding assay relative to control; values are per cent of control
Sequence of Protein kinase C eta type (Homo sapiens) (P24723 whole entry): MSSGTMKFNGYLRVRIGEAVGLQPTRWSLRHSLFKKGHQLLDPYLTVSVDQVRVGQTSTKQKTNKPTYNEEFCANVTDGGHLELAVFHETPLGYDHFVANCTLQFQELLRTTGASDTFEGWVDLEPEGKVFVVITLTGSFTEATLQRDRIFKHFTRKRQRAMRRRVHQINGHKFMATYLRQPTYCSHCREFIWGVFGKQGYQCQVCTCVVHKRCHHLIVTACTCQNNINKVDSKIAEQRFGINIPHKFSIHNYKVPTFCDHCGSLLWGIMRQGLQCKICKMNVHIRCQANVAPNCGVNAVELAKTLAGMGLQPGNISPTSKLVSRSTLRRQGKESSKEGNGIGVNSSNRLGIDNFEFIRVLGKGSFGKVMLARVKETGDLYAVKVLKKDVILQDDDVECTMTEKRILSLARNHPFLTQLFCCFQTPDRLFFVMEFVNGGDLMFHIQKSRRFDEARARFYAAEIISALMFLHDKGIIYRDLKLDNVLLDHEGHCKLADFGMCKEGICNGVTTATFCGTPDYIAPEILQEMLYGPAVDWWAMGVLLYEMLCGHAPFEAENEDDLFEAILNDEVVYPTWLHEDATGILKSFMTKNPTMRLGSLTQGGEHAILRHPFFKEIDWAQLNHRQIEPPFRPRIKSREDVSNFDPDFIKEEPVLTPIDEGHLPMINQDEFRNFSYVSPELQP

CNc1cc(Oc2cc(C(=O)Nc3cc(N4CCN(C)CC4)cc(C(F)(F)F)c3)ccc2C)ncn1
inhibition at 1 µM [1]: 4.9%

CCN1CCN(Cc2ccc(NC(=O)c3ccc(C)c(Oc4ccnc5[nH]ccc45)c3)cc2C(F)(F)F)CC1
inhibition [2]: 0.05% | inhibition [3]: 0.1% | inhibition [4]: inactive | inhibition [5]: inactive | inhibition [6]: inactive | inhibition [7]: 98.2% | inhibition [8]: 14.5% | inhibition [9]: -6.3%

CCN1CCN(Cc2ccc(NC(=O)c3ccc(C)c(/C=C/c4cnc5[nH]ccc5c4OC)c3)cc2C(F)(F)F)CC1
inhibition [10]: 70% | residual activity [11]: 100% | percent of control [12]: 1.2% | % of control [13]: 2.8% | residual activity [14]: 100%
